Legend:
[1] = molecular target: T1, PPARγ-RXRα heterodimer (Homo sapiens, UniProt P37231); experiment: PPARγ-RXRα heterodimer ligand activity (luciferase reporter, PPARγ:RXRα:4ERPP/CHO-K1 cells); assay type: cell-based; details: 48 hours, concentration for 50% of the maximum fold induction
T1 construct: expressed in transfected cells; host or cells: CHO-K1
T1 sequence (P37231 1-477 isoform P37231-2): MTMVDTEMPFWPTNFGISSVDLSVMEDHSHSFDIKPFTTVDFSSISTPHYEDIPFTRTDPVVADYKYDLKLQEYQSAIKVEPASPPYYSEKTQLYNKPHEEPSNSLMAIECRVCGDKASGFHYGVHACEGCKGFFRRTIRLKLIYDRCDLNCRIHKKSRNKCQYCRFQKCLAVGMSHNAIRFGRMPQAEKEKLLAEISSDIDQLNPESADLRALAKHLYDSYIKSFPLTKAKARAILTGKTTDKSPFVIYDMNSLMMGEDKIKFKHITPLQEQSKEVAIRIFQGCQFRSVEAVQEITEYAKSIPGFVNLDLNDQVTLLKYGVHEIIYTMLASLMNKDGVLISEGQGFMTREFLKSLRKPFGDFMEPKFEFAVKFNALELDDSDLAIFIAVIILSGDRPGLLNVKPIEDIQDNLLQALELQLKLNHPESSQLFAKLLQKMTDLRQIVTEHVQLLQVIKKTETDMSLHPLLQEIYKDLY
T1 sequence (P19793 1-462 partner): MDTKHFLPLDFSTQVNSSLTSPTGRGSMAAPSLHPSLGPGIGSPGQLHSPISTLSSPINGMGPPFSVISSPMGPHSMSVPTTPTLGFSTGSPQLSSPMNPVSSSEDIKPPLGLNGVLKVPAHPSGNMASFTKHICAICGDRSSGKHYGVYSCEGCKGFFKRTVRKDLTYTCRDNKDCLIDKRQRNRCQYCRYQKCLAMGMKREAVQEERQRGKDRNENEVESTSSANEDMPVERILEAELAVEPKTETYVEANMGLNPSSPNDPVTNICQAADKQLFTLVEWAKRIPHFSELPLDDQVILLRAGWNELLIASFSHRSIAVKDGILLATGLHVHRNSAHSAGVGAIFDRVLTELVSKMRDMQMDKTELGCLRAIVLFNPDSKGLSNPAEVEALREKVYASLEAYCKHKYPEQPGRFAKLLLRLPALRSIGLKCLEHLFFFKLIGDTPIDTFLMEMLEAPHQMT
Experimental: (PPARγ-RXRα Heterodimer Ligand Activity)
A PPARγ:RXRα:4ERPP/CHO-K1 cells obtained in Reference Example 5 described later were cultured in HAM F12 medium (produced by NISSUI SEIYAKU) containing 10% Fetal bovine serum (produced by Life Technologies, Inc., USA) and then inoculated to a 96-well white plate (produced by Corning Costar Corporation, USA) at the density of 2×10^4 cells/well, and cultured in a CO2 gas incubator at 37° C. overnight.
After washing the 96 well white plate with PBS (Phosphate-buffered saline), 90 μl of HAM F12 medium containing 0.1% fatty acid-free bovine serum albumin (BSA) and 10 μl of test compound were added, which was cultured in a CO2 gas incubator at 37° C. for 48 hours. After removing the medium, 40 μl of PIKKAGENE 7.5 (produced by Wako Pure Chemical Industries, Ltd.) was added. After stirring, the luciferase activity was determined using Lumistar (produced by BMG Labtechnologies GmbH, Germany).
A fold induction was calculated based on the luciferase activity of each test compound by taking the luciferase activity in the non-treatment group as 1. The values of the test compound concentration and the fold induction were analyzed using PRISM 2.01 (produced by GraphPad Software Inc. USA) to calculate the EC50 values, the effective concentration of a test compound for 50% of the maximum fold induction.
(Introduction of Human PPARγ- and RXRα-Expressing Plasmid and Reporter Plasmid into CHO-K1 Cell and Establishment of Expressed Cell)
After a CHO-K1 cell cultured in a 750 ml tissue culture flask (produced by Corning Costar Corporation, USA) containing HAM F12 medium (produced by NISSUI SEIYAKU) supplemented with 10% Fetal Bovine Serum (produced by Life Technologies, Inc., USA) was scraped by treating with 0.5 g/L trypsin-0.2 g/L EDTA (ethylenediaminetetraacetic acid) (produced by Life Technologies, Inc., USA), the cell was washed with PBS (phosphate-buffered saline) (produced by Life Technologies, Inc., USA), centrifuged (1000 rpm, 5 minutes), and then suspended in PBS. Subsequently, a DNA was introduced into the cell under the condition shown below using GENE PULSER (produced by Bio-Rad Laboratories, USA).
Namely, to a cuvette having a 0.4 cm gap, added were 8×10^6 cells and 10 μg of plasmid pVgRXR2-hPPAR γ obtained in Reference Example 3 and 10 μg of reporter plasmid pGL3-4ERPP-TK neo obtained in Reference Example 4, which was subjected to electroporation at the voltage of 0.25 kV under the capacitance of 960 μF. Subsequently, the cell was transferred into a HAM F12 medium containing 10% Fetal Bovine Serum and cultured for 24 hours and then the cell was scraped again and centrifuged, and then suspended in HAM F12 medium containing 10% Fetal Bovine Serum supplemented with 500 μg/ml of GENETICIN (produced by Life Technologies, Inc., USA) and 250 μg/ml of ZEOCIN (produced by Invitrogen, USA) and diluted to the density of 10^4 cells/ml upon inoculation to a 96-well plate (produced by Corning Costar Corporation, USA), which was cultured in a CO2 gas incubator at 37° C., whereby obtaining a GENETICIN- and ZEOCIN-resistant transformant.
Subsequently, after the transformant cell line thus obtained was cultured in a 24-well plate (produced by Corning Costar Corporation, USA), selected was a cell line in which the luciferase was expressed and induced, i.e., PPARγ:RXRα:4ERPP/CHO-K1 cell by addition of 10 μM pioglitazone hydrochloride.

[2] = test system: KKA^y mice; experiment: Total cholesterol lowering action and plasma anti-arteriosclerosis index-enhancing action in mice; assay type: in vivo; details: four days, non-treatment group taken as 100%; for change in vivo at 0.001 % / inhibition in vivo at 0.001 % / change in vivo at 0.005 % / inhibition in vivo at 0.005 %: Mus musculus, po, 96 h; for change in vivo at 0.001 % / change in vivo at 0.005 %: read-out: Plasma anti-arteriosclerosis index-enchancing action (%); for change in vivo at 0.005 % / inhibition in vivo at 0.005 %: 0.005% in powdery diet
Description: Total Cholesterol Lowering Action and Plasma Anti-Arteriosclerosis Index-Enhancing Action in Mice
Test compounds were mixed in a powdery diet (CE-2, Japan Clea) at the concentration of 0.01% (compounds of Examples 12, 30, 89), 0.005% (compounds of Examples 38, 40, 44, 181, 184, 262, 283), or 0.001% (compounds of Examples 9, 156, 167, 172, 174, 176, 189), and freely given to KKA^y mice (9 to 12 weeks old, 5 mice per group), a model of obese and type 2 diabetes mellitus, for four days. During this period, water was given freely. Blood was sampled from orbital venous plexus and plasma was separated. Total cholesterol levels were determined by using L type Wako Cholesterol (Wako Pure Chemical Industries, Ltd.). Precipitation reagent for apoB containing lipoprotein was added to a part of the plasma to precipitate non-HDL lipoprotein, and cholesterol (HDL cholesterol) in the resulting supernatant was determined. The plasma anti-arteriosclerosis index [(HDL cholesterol/total cholesterol)×100] was calculated by using these cholesterol levels.
In the Table, “Total cholesterol lowering action (%)” represents the percent reduction (%) of total cholesterol level in the treatment group, when the total cholesterol level in the non-treatment group is taken as 100%. “Plasma anti-arteriosclerosis index-enhancing action (%)” represents the percent increase (%) of plasma anti-arteriosclerosis index in the treatment group, when the plasma anti-arteriosclerosis index in the non-treatment group is taken as 100%.

[3] = test system: KKA^y mice; experiment: Hypoglycemic and hypolipidemic actions in mice; assay type: in vivo; details: four days; for inhibition in vivo at 0.001 % / inhibition in vivo at 0.005 %: Mus musculus, po, 96 h; for inhibition in vivo at 0.005 %: 0.005% in powdery diet
Description: Hypoglycemic and Hypolipidemic Actions in Mice
Test compounds were mixed in a powdery diet (CE-2, Japan Clea) at the concentration of 0.01% (compounds of Examples 12, 30, 89, 186), 0.005% (compounds of Examples 7, 80, 82, 181, 182, 184, 256, 262, 283), 0.001% (compounds of Examples 9, 104, 110, 155, 156, 160, 167, 169, 172, 174, 176, 189), or 0.0003% (compounds of Examples 38, 40, 44), and freely given to KKA^y mice (9 to 12 weeks old, 5 mice in a group), a model of obese and type 2 diabetes mellitus, for four days. During this period, water was given freely. Blood was sampled from orbital venous plexus, and glucose and triglyceride levels in plasma separated from blood were determined enzymatically using L type Wako Glu2 (Wako Pure Chemical Industries, Ltd.) or L type Wako TG•H (Wako Pure Chemical Industries, Ltd.), respectively.
In the Table, the value of each treatment group is represented as percent reduction compared with the non-treatment group.

[4] = 0.001% in powdery diet, percent increase of [(HDL cholesterol/total cholesterol)×100]
[5] = 0.001% in powdery diet, percent reduction of plasma total cholesterol
[6] = 0.001% in powdery diet, percent reduction of plasma glucose compared with the non-treatment group, read-out: Hypoglycemic action (%)
[7] = 0.001% in powdery diet, percent reduction of plasma triglyceride compared with the non-treatment group, read-out: Hypolipidemic action (%)
[8] = percent increase of [(HDL cholesterol/total cholesterol)×100]
[9] = percent reduction of plasma total cholesterol
[10] = percent reduction of plasma glucose compared with the non-treatment group, read-out: Hypoglycemic action (%)
[11] = percent reduction of plasma triglyceride compared with the non-treatment group, read-out: Hypolipidemic action (%)

`Cc1oc(-c2ccco2)nc1COc1ccc(Cn2cc(CCC(=O)O)c(-c3ccccc3)c2)cc1` [Example 8, 3-[1-[4-[2-(2-furyl)-5-methyl-4-oxazolylmethoxy]benzyl]-4-phenyl-3-pyrrolyl]propionic acid] showed a melting point of 86 to 87 °C and an EC50 [1] of 2.7 nM.

Compound `CCCOc1nn(Cc2ccc(OCc3nc(-c4ccccc4)oc3C)cc2)cc1CCC(=O)O` [Example 156, 3-[1-[4-(5-methyl-2-phenyl-4-oxazolylmethoxy)benzyl]-3-propyloxy-1H-pyrazol-4-yl]propionic acid] has a change in vivo at 0.001 % [2, 4] of 15%, an inhibition in vivo at 0.001 % [2, 5] of 20% and an inhibition in vivo at 0.001 % [3, 6] of 45%. For the same compound, the inhibition in vivo at 0.001 % [3, 7] was 80%.

`CCOc1nn(Cc2ccc(OCc3nc(-c4ccco4)oc3C)cc2)cc1CCC(=O)O` [Example 167, 3-[3-ethoxy-1-[4-[2-(2-furyl)-5-methyl-4-oxazolylmethoxy]benzyl]-1H-pyrazol-4-yl]propionic acid] gave a change in vivo at 0.001 % [2, 4] of 9%, an inhibition in vivo at 0.001 % [2, 5] of 19% and an inhibition in vivo at 0.001 % [3, 6] of 48%. The inhibition in vivo at 0.001 % [3, 7] was 60%.

Work on `CCOc1nn(Cc2ccc(OCc3nc(-c4ccccc4)oc3C)c(OC)c2)cc1CCC(=O)O` [Example 172, 3-[3-ethoxy-1-[3-methoxy-4-(5-methyl-2-phenyl-4-oxazolylmethoxy)benzyl]-1H-pyrazol-4-yl]propionic acid] yielded a change in vivo at 0.001 % [2, 4] of 11%, an inhibition in vivo at 0.001 % [2, 5] of 20% and an inhibition in vivo at 0.001 % [3, 6] of 42%. It also gave an inhibition in vivo at 0.001 % [3, 7] of 62%.

In the case of `CCOc1nn(Cc2ccc(OCc3nc(-c4ccco4)oc3C)c(OC)c2)cc1CCC(=O)O` [Example 174, 3-[3-ethoxy-1-[4-[2-(2-furyl)-5-methyl-4-oxazolylmethoxy]-3-methoxybenzyl]-1H-pyrazol-4-yl]propionic acid], the change in vivo at 0.001 % [2, 4] is reported as 10%, the inhibition in vivo at 0.001 % [2, 5] is reported as 19% and the inhibition in vivo at 0.001 % [3, 6] is reported as 40%. For the same compound, the inhibition in vivo at 0.001 % [3, 7] was 52%.

For `CCOc1nn(Cc2ccc(OCc3nc(-c4cccs4)oc3C)c(OC)c2)cc1CCC(=O)O` [Example 176], the “Plasma anti-arteriosclerosis index-enchancing action (%)” value [2, 4] was 11%, the “Total cholesterol lowering action (%)” value [2, 5] was 23% and the “Hypoglycemic action (%)” value ([3]; 0.001% in powdery diet, percent reduction of plasma glucose compared with the non-treatment group) was 40%. For the same compound, the “Hypolipidemic action (%)” value ([3]; 0.001% in powdery diet, percent reduction of plasma triglyceride compared with the non-treatment group) was 66%.

`CCOc1nn(Cc2ccc(OCc3csc(-c4ccccc4)n3)cc2)cc1CCC(=O)O` [Example 181, 3-[3-ethoxy-1-[4-(2-phenyl-4-thiazolylmethoxy)benzyl]-1H-pyrazol-4-yl]propionic acid] gave a change in vivo at 0.005 % [2, 8] of 21%, an inhibition in vivo at 0.005 % [2, 9] of 25% and an inhibition in vivo at 0.005 % [3, 10] of 56%. It also gave an inhibition in vivo at 0.005 % [3, 11] of 63%.

`CCOc1nn(Cc2ccc(OCc3nc(-c4ccccc4)oc3C)nc2)cc1CCC(=O)O` [Example 184, 3-[3-ethoxy-1-[2-(5-methyl-2-phenyl-4-oxazolylmethoxy)-5-pyridylmethyl]-1H-pyrazol-4-yl]propionic acid] gave a change in vivo at 0.005 % [2, 8] of 17%, an inhibition in vivo at 0.005 % [2, 9] of 27% and an inhibition in vivo at 0.005 % [3, 10] of 56%. For the same compound, the inhibition in vivo at 0.005 % [3, 11] was 82%.

For `CCOc1nn(Cc2ccc(OCc3nc(-c4cccs4)oc3C)cc2)cc1CCC(=O)O` [Example 189, 3-[3-ethoxy-1-[4-[5-methyl-2-(2-thienyl)-4-oxazolylmethoxy]benzyl]-1H-pyrazol-4-yl]propionic acid], the change in vivo at 0.001 % [2, 4] was 20%, the inhibition in vivo at 0.001 % [2, 5] was 21% and the inhibition in vivo at 0.001 % [3, 6] was 44%. It also gave an inhibition in vivo at 0.001 % [3, 7] of 75%.

From US7179823B1, “5-membered n-heterocyclic compounds with hypoglycemic and hypolipidemic activity” (Takeda Pharmaceutical Company Limited, priority 1999, dated 2007)
